Measured values: patent US12156893B2, “Oral composition comprising lactic acid bacteria for regulating immune responses and methods related thereto” (The Regents of the University of California, priority 2016, dated 2024)

What was measured:
Format in all cases: cell-based, human
MP2 tumors = experiment: Chemotherapy-induced cell death of MP2 tumors; details: for Cell death of NK-differentiated MP2: MP2 differentiated with NK-supernatants
OSCSCs = experiment: Chemotherapy-induced cell death of NK-differentiated OSCSCs; details: OSCSCs differentiated with NK supernatants
PL12 or Capan = experiment: NAC-induced cell death of well-differentiated pancreatic tumors; details: NAC added to well-differentiated PL12 or Capan
NK cells = experiment: Production of cytokines, growth factors and chemokines by NK cells treated with bacterial strains (Bio-Plex 27-plex); set-up: unit not given here
Method: Different strains of probiotic bacteria were tested for their ability to induce IFN-g as well as a number of important cytokines, chemokines and growth factors (Table 1). To assess the levels of each strain used in the combination we used an activation index established in the lab for the NK cells which consisted of the use of a specific ratio of several important cytokines and chemokines that prevented auto-immunity while enhancing significant activation of NK cells under pathologic conditions. Therefore, the strains were selected to: 1) provide regulated activation of NK cells when no activation of NK cells is desired; 2) when activated by cytokines and/or cross-linking of the important receptors which occurs during functional activation of NK cells in cancer is to induce maximal activation of NK cells; and 3) provide diversity for gut microflora. These criteria allow us to use bacteria to regulate the gut mucosal immunity in such a way that we will only increase NK activation when needed during infections or malignancies. In other words when there is no need for function of NK cells bacteria will regulate NK function to not induce inflammation; however, during need which occurs under the pathological conditions NK cells are triggered to function at the maximal levels. Such coordinated regulation of NK cell function should be effective in halting unwanted inflammation while providing effective and maximal immunity during disease.
Written informed consents, approved by UCLA Institutional Review Board (IRB), were obtained from healthy blood donors, and all procedures were approved by the UCLA-IRB. Peripheral blood was separated using Ficoll-Hypaque centrifugation, after which the white, cloudy layer, containing peripheral blood mononuclear cells (PBMC), was harvested, washed and re-suspended in RPMI 1640 (Invitrogen by Life Technologies, CA) supplemented with 10% FBS and plated on plastic tissue culture dishes. After 1-2 hours of incubation, non-adherent, human peripheral blood lymphocytes (PBL) were collected. NK cells were negatively selected and isolated from PBLs using the EasySep® Human NK cell enrichment kit purchased from Stem Cell Technologies (Vancouver, BC, Canada). Isolated NK cells were stained with anti-CD16 antibody, to measure NK cell purity using flow cytometric analysis. The isolated NK cell population was greater than 90% purity. Purified NK cells were cultured in RPMI Medium 1640 supplemented with 10% FBS (Gemini Bio-Products, CA), 1% antibiotic antimycotic, 1% sodium pyruvate, and 1% MEM non-essential amino acids (Invitrogen, Life Technologies, CA).
Purified NK cells from healthy donors were left untreated or treated with IL-2 (1000 units/ml) or the combination of anti-CD16 mAb (3 μg/ml) and IL-2 (1000 units/ml) in the presence or absence of bacterial strains at 1:5 ratio (NK cell: bacteria) for 12-18 hours. Afterwards, the levels of cytokines, growth factors and chemokines were determined using Bio-Plex Pro Human Cytokine 27-plex Assay Kit.

[1] = Treatment NK (no activation), bacteria 1:5 NK cell:bacteria, 12-18 hours
[2] = Treatment NK + IL-2 (1000 units/ml), bacteria 1:5, 12-18 hours
[3] = Treatment NK + IL-2 + anti-CD16 mAb (3 μg/ml), bacteria 1:5, 12-18 hours

[NH2][Pt]([NH2])([Cl])[Cl] [CDDP, Cisplatin]
Cell death of NK-differentiated MP2 (MP2 tumors): significant susceptibility | Cell death of NK-differentiated OSCSCs (OSCSCs): significant susceptibility

CC(=O)N[C@@H](CS)C(=O)O [NAC, N-acetylcysteine]
Cell death (MP2 tumors; NAC added to poorly-differentiated MP2): lower/slight effect on cell death | Cell death of NK-differentiated OSCSCs (OSCSCs): significantly increased Paclitaxel-mediated cell death | Cell death (PL12 or Capan): greater levels of cell death

CC(=O)O[C@H]1C(=O)[C@@]2(C)[C@H]([C@H](OC(=O)c3ccccc3)[C@]3(O)C[C@H](OC(=O)[C@H](O)[C@@H](NC(=O)c4ccccc4)c4ccccc4)C(C)=C1C3(C)C)[C@]1(OC(C)=O)CO[C@@H]1C[C@@H]2O [Paclitaxel]
Cell death of NK-differentiated MP2 (MP2 tumors): significant susceptibility | Cell death of NK-differentiated OSCSCs (OSCSCs): higher cell death

Bifidobacterium infantis [B. infantis]
Eotaxin (NK cells; [1]): 18 | G-CSF (NK cells; [1]): 145 | GM-CSF (NK cells; [1]): 123 | IFN-γ (NK cells; [1]): 275 | IL-1B (NK cells; [1]): 249 | IL-1ra (NK cells; [1]): 179 | IL-6 (NK cells; [1]): 6136 | IL-8 (NK cells; [1]): 4265 | IL-10 (NK cells; [1]): 55 | IL-12p70 (NK cells; [1]): 66 | IL-13 (NK cells; [1]): 1 | IL-17 (NK cells; [1]): 56 | IP-10 (NK cells; [1]): 57 | MCP-1 (NK cells; [1]): 451 | RANTES (NK cells; [1]): 2234 | TNF-α (NK cells; [1]): 5728 | Eotaxin (NK cells; [2]): 19 | G-CSF (NK cells; [2]): 190 | GM-CSF (NK cells; [2]): 163 | IFN-γ (NK cells; [2]): 3073 | IL-1B (NK cells; [2]): 422 | IL-1ra (NK cells; [2]): 459 | IL-6 (NK cells; [2]): 6618 | IL-8 (NK cells; [2]): 5090 | IL-10 (NK cells; [2]): 41 | IL-12p70 (NK cells; [2]): 115 | IL-13 (NK cells; [2]): 19 | IL-17 (NK cells; [2]): 72 | IP-10 (NK cells; [2]): 113 | MCP-1 (NK cells; [2]): 382 | RANTES (NK cells; [2]): 3225 | TNF-α (NK cells; [2]): 5103 | Eotaxin (NK cells; [3]): 32 | G-CSF (NK cells; [3]): 151 | GM-CSF (NK cells; [3]): 178 | IFN-γ (NK cells; [3]): 1250 | IL-1B (NK cells; [3]): 365 | IL-1ra (NK cells; [3]): 434 | IL-6 (NK cells; [3]): 3927 | IL-8 (NK cells; [3]): 3557 | IL-10 (NK cells; [3]): 34 | IL-12p70 (NK cells; [3]): 47 | IL-13 (NK cells; [3]): 22 | IL-17 (NK cells; [3]): 65 | IP-10 (NK cells; [3]): 88 | MCP-1 (NK cells; [3]): 360 | RANTES (NK cells; [3]): 2646 | TNF-α (NK cells; [3]): 5287

Lactobacillus plantarum [L. plantarum]
Eotaxin (NK cells; [1]): 36 | G-CSF (NK cells; [1]): 236 | GM-CSF (NK cells; [1]): 122 | IFN-γ (NK cells; [1]): 282 | IL-1B (NK cells; [1]): 645 | IL-1ra (NK cells; [1]): 323 | IL-6 (NK cells; [1]): 9500 | IL-8 (NK cells; [1]): 17756 | IL-10 (NK cells; [1]): 85 | IL-12p70 (NK cells; [1]): 130 | IL-13 (NK cells; [1]): 8 | IL-17 (NK cells; [1]): 78 | IP-10 (NK cells; [1]): 140 | MCP-1 (NK cells; [1]): 958 | RANTES (NK cells; [1]): 22609 | TNF-α (NK cells; [1]): 13887 | Eotaxin (NK cells; [2]): 36 | G-CSF (NK cells; [2]): 129 | GM-CSF (NK cells; [2]): 181 | IFN-γ (NK cells; [2]): 5484 | IL-1B (NK cells; [2]): 466 | IL-1ra (NK cells; [2]): 500 | IL-6 (NK cells; [2]): 4212 | IL-8 (NK cells; [2]): 3415 | IL-10 (NK cells; [2]): 43 | IL-12p70 (NK cells; [2]): 184 | IL-13 (NK cells; [2]): 14 | IL-17 (NK cells; [2]): 73 | IP-10 (NK cells; [2]): 115 | MCP-1 (NK cells; [2]): 427 | RANTES (NK cells; [2]): 1923 | TNF-α (NK cells; [2]): 9223 | Eotaxin (NK cells; [3]): 40 | G-CSF (NK cells; [3]): 125 | GM-CSF (NK cells; [3]): 216 | IFN-γ (NK cells; [3]): 3087 | IL-1B (NK cells; [3]): 714 | IL-1ra (NK cells; [3]): 575 | IL-6 (NK cells; [3]): 3679 | IL-8 (NK cells; [3]): 3247 | IL-10 (NK cells; [3]): 37 | IL-12p70 (NK cells; [3]): 155 | IL-13 (NK cells; [3]): 20 | IL-17 (NK cells; [3]): 78 | IP-10 (NK cells; [3]): 92 | MCP-1 (NK cells; [3]): 335 | RANTES (NK cells; [3]): 4147 | TNF-α (NK cells; [3]): 7942
